Reference: the NIST ThermoML archive (doi:10.1021/je060485s)
± gives the expanded uncertainty stated by the source.

Tests used:
[1] = xn = mol fraction of the nth substance listed; conditions: for surface tension liquid-gas: Pendant drop shape; for mass density: 101 kPa, Liquid
[2] = for surface tension liquid-gas: Pendant drop shape; for mass density: 101 kPa, Liquid

Cc1ccc(C)cc1 [1,4-dimethylbenzene] + CCCOC(C)=O
[1], x2 = 0
Conditions | mass density [kg/m3] | surface tension liquid-gas [mN/m]
298.15 K | 856.92 ± 0.36 | 28.08 ± 0.3
303.15 K | 852.58 ± 0.37 | 27.47 ± 0.29
308.15 K | 848.26 ± 0.37 | 27.13 ± 0.29

CCc1ccccc1 [ethylbenzene]
[2]
Conditions | mass density [kg/m3] | surface tension liquid-gas [mN/m]
298.15 K | 862.25 ± 0.35 | 28.79 ± 0.3
303.15 K | 857.88 ± 0.36 | 28.29 ± 0.3
308.15 K | 853.43 ± 0.37 | 27.85 ± 0.3

CCc1ccccc1 [ethylbenzene] + CCCOC(C)=O
[1], x2 = 0
Conditions | mass density [kg/m3] | surface tension liquid-gas [mN/m]
298.15 K | 862.25 ± 0.35 | 28.79 ± 0.3
303.15 K | 857.88 ± 0.36 | 28.29 ± 0.3
308.15 K | 853.43 ± 0.37 | 27.85 ± 0.3

CCCOC(C)=O [propyl ethanoate]
[2]
Conditions | mass density [kg/m3] | surface tension liquid-gas [mN/m]
298.15 K | 882.54 ± 0.35 | 23.91 ± 0.27
303.15 K | 876.99 ± 0.35 | 23.46 ± 0.27
308.15 K | 871.35 ± 0.36 | 22.79 ± 0.26

CCCOC(C)=O [propyl ethanoate] + CCc1ccccc1
[1]
Conditions | mass density [kg/m3] | surface tension liquid-gas [mN/m]
298.15 K, x1 = 0.1005 | 864.23 ± 0.35 | 28.15 ± 0.3
298.15 K, x1 = 0.1994 | 866.18 ± 0.35 | 27.51 ± 0.29
298.15 K, x1 = 0.3002 | 868.16 ± 0.35 | 26.89 ± 0.29
298.15 K, x1 = 0.4005 | 870.14 ± 0.35 | 26.35 ± 0.29
298.15 K, x1 = 0.5 | 872.12 ± 0.35 | 25.91 ± 0.28
298.15 K, x1 = 0.6002 | 874.14 ± 0.35 | 25.5 ± 0.28
298.15 K, x1 = 0.6997 | 876.17 ± 0.35 | 25.1 ± 0.28
298.15 K, x1 = 0.7998 | 878.24 ± 0.35 | 24.7 ± 0.28
298.15 K, x1 = 0.9007 | 880.38 ± 0.35 | 24.3 ± 0.27
298.15 K, x1 = 1 | 882.54 ± 0.35 | 23.91 ± 0.27
303.15 K, x1 = 0.1001 | 859.75 ± 0.36 | 27.7 ± 0.3
303.15 K, x1 = 0.1995 | 861.59 ± 0.36 | 27.1 ± 0.29
303.15 K, x1 = 0.2995 | 863.45 ± 0.36 | 26.49 ± 0.29
303.15 K, x1 = 0.4 | 865.32 ± 0.36 | 25.95 ± 0.28
303.15 K, x1 = 0.5004 | 867.2 ± 0.36 | 25.49 ± 0.28
303.15 K, x1 = 0.5995 | 869.08 ± 0.36 | 25.07 ± 0.28
303.15 K, x1 = 0.6999 | 871 ± 0.36 | 24.65 ± 0.27
303.15 K, x1 = 0.8005 | 872.96 ± 0.35 | 24.24 ± 0.27
303.15 K, x1 = 0.9007 | 874.96 ± 0.35 | 23.85 ± 0.27
303.15 K, x1 = 1 | 876.99 ± 0.35 | 23.46 ± 0.27
308.15 K, x1 = 0.1 | 855.19 ± 0.37 | 27.24 ± 0.29
308.15 K, x1 = 0.2 | 856.93 ± 0.36 | 26.62 ± 0.29
308.15 K, x1 = 0.2999 | 858.67 ± 0.36 | 26.01 ± 0.28
308.15 K, x1 = 0.3997 | 860.41 ± 0.36 | 25.46 ± 0.28
308.15 K, x1 = 0.5003 | 862.18 ± 0.36 | 24.97 ± 0.28
308.15 K, x1 = 0.5999 | 863.95 ± 0.36 | 24.52 ± 0.27
308.15 K, x1 = 0.7001 | 865.74 ± 0.36 | 24.08 ± 0.27
308.15 K, x1 = 0.8007 | 867.58 ± 0.36 | 23.65 ± 0.27
308.15 K, x1 = 0.9003 | 869.44 ± 0.36 | 23.22 ± 0.26
308.15 K, x1 = 1 | 871.35 ± 0.36 | 22.79 ± 0.26
